In PubChem BioAssay (NCI):
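A five-concentration, 48-hour dose response in 96-well plates underlies each endpoint, interpolated linearly between surrounding concentrations. Abbreviation: GI50, concentration required for 50% inhibition of growth. TGI is the concentration that stops growth completely.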

Assays:
Test in all cases: NCI tumour cell line growth inhibition, 48 h
K-562 leukemia = system: K-562 leukemia
HCT-15 colon = system: HCT-15 colon
UO-31 renal = system: UO-31 renal
COLO 205 colon = system: COLO 205 colon
T-47D breast = system: T-47D breast
HOP-62 NSCLC = system: HOP-62 NSCLC
NCI-H23 lung = system: NCI-H23 lung
ACHN renal = system: ACHN renal
SK-MEL-2 melanoma = system: SK-MEL-2 melanoma
NCI-H226 lung = system: NCI-H226 lung
OVCAR-3 ovarian = system: OVCAR-3 ovarian
MALME-3M melanoma = system: MALME-3M melanoma
HOP-92 NSCLC = system: HOP-92 NSCLC
MDA-MB-435 = system: MDA-MB-435
A498 renal = system: A498 renal
IGROV1 ovarian = system: IGROV1 ovarian
DU-145 prostate = system: DU-145 prostate
BT-549 breast = system: BT-549 breast
786-0 renal = system: 786-0 renal
HT29 colon = system: HT29 colon
M14 melanoma = system: M14 melanoma
NCI/ADR-RES ovarian = system: NCI/ADR-RES ovarian
SN12C renal = system: SN12C renal
SF-268 CNS = system: SF-268 CNS
SW-620 colon = system: SW-620 colon
MDA-MB-231 breast = system: MDA-MB-231 breast
OVCAR-5 ovarian = system: OVCAR-5 ovarian
TK-10 renal = system: TK-10 renal
SR leukemia = system: SR leukemia
KM12 colon = system: KM12 colon
UACC-62 melanoma = system: UACC-62 melanoma
EKVX NSCLC = system: EKVX NSCLC
HS 578T breast = system: HS 578T breast
NCI-H522 lung = system: NCI-H522 lung
U251 CNS = system: U251 CNS
MOLT-4 leukemia = system: MOLT-4 leukemia
SNB-75 CNS = system: SNB-75 CNS
SNB-19 CNS = system: SNB-19 CNS
PC-3 prostate = system: PC-3 prostate
RPMI-8226 leukemia = system: RPMI-8226 leukemia
OVCAR-8 ovarian = system: OVCAR-8 ovarian
HL-60(TB) leukemia = system: HL-60(TB) leukemia
SK-MEL-5 melanoma = system: SK-MEL-5 melanoma
SK-OV-3 ovarian = system: SK-OV-3 ovarian
HCT-116 colon = system: HCT-116 colon
SK-MEL-28 melanoma = system: SK-MEL-28 melanoma
UACC-257 melanoma = system: UACC-257 melanoma
MCF7 breast = system: MCF7 breast
LOX IMVI melanoma = system: LOX IMVI melanoma
NCI-H460 lung = system: NCI-H460 lung
A549 NSCLC = system: A549 NSCLC
SF-539 CNS = system: SF-539 CNS
OVCAR-4 ovarian = system: OVCAR-4 ovarian
CCRF-CEM leukemia = system: CCRF-CEM leukemia
CAKI-1 renal = system: CAKI-1 renal
SF-295 CNS = system: SF-295 CNS

## COc1ccc(N2CCN(C(=O)c3ccc(C(F)(F)F)nc3Nc3cc(Cl)ccc3C)CC2)cc1
K-562 leukemia
  GI50: 4.76 µM
  TGI: 22.8 µM
HCT-15 colon
  GI50: 7.71 µM
  TGI: 21.2 µM
UO-31 renal
  GI50: 1.69 µM
  TGI: 10.9 µM
COLO 205 colon
  GI50: 11.4 µM
  TGI: 26.2 µM
T-47D breast
  GI50: 2.8 µM
  TGI: 26.2 µM
HOP-62 NSCLC
  GI50: 13.2 µM
  TGI: 25.9 µM
NCI-H23 lung
  GI50: 9.12 µM
  TGI: 23.9 µM
ACHN renal
  GI50: 7.78 µM
  TGI: 31.1 µM
SK-MEL-2 melanoma
  GI50: 0.949 µM
  TGI: 19 µM
NCI-H226 lung
  GI50: 14.3 µM
  TGI: 36.3 µM
OVCAR-3 ovarian
  GI50: 2.98 µM
  TGI: 19 µM
MALME-3M melanoma
  GI50: 10.6 µM
  TGI: 28.4 µM
HOP-92 NSCLC
  GI50: 1.49 µM
  TGI: 7.97 µM
MDA-MB-435
  GI50: 11.2 µM
  TGI: 27.5 µM
A498 renal
  GI50: 6.01 µM
  TGI: 19.8 µM
IGROV1 ovarian
  GI50: 0.0509 µM
  TGI: 20.3 µM
DU-145 prostate
  GI50: 14.7 µM
  TGI: 31 µM
BT-549 breast
  GI50: 10.2 µM
  TGI: 23.7 µM
786-0 renal
  GI50: 4.47 µM
  TGI: 16.8 µM
HT29 colon
  GI50: 4.45 µM
  TGI: 18 µM
M14 melanoma
  GI50: 10.6 µM
  TGI: 22.6 µM
NCI/ADR-RES ovarian
  GI50: 10.1 µM
  TGI: 27.3 µM
SN12C renal
  GI50: 11.8 µM
  TGI: 24.4 µM
SF-268 CNS
  GI50: 7.04 µM
  TGI: 22.4 µM
SW-620 colon
  GI50: 10.5 µM
  TGI: 22.4 µM
MDA-MB-231 breast
  GI50: 4.09 µM
  TGI: 15.6 µM
OVCAR-5 ovarian
  GI50: 10.6 µM
  TGI: 25.1 µM
TK-10 renal
  GI50: 15 µM
  TGI: 34.6 µM
SR leukemia
  GI50: 4.65 µM
  TGI: 39 µM
KM12 colon
  GI50: 6.91 µM
  TGI: 20.8 µM
UACC-62 melanoma
  GI50: 8.15 µM
  TGI: 20.8 µM
EKVX NSCLC
  GI50: 2.67 µM
  TGI: 21.1 µM
HS 578T breast
  GI50: 4.09 µM
  TGI: 22.1 µM
NCI-H522 lung
  GI50: 3.38 µM
  TGI: 22.3 µM
U251 CNS
  GI50: 9.37 µM
  TGI: 21.2 µM
MOLT-4 leukemia
  GI50: 4.49 µM
  TGI: 29.6 µM
SNB-75 CNS
  GI50: 3.66 µM
  TGI: 22.6 µM
SNB-19 CNS
  GI50: 9.17 µM
  TGI: 22.5 µM
PC-3 prostate
  GI50: 5.44 µM
  TGI: 32.7 µM
RPMI-8226 leukemia
  GI50: 7.46 µM
  TGI: 49.2 µM
OVCAR-8 ovarian
  GI50: 11.3 µM
  TGI: 38.7 µM
HL-60(TB) leukemia
  GI50: 6.94 µM
  TGI: 28.6 µM
SK-MEL-5 melanoma
  GI50: 8.02 µM
  TGI: 20.8 µM
SK-OV-3 ovarian
  GI50: 4.67 µM
  TGI: 22.1 µM
HCT-116 colon
  GI50: 6.38 µM
  TGI: 19 µM
SK-MEL-28 melanoma
  GI50: 14 µM
  TGI: 30.3 µM
UACC-257 melanoma
  GI50: 10.7 µM
  TGI: 28.3 µM
MCF7 breast
  GI50: 2.88 µM
  TGI: 21 µM
LOX IMVI melanoma
  GI50: 10.4 µM
  TGI: 22.1 µM
NCI-H460 lung
  GI50: 6.11 µM
  TGI: 21 µM
A549 NSCLC
  GI50: 10.2 µM
  TGI: 27.7 µM
SF-539 CNS
  GI50: 10.7 µM
  TGI: 24.7 µM
OVCAR-4 ovarian
  GI50: 7.83 µM
  TGI: 29.9 µM
CCRF-CEM leukemia
  GI50: 8.79 µM
  TGI: 38.5 µM
CAKI-1 renal
  GI50: 1.38 µM
  TGI: 8.36 µM
SF-295 CNS
  GI50: 9.78 µM
  TGI: 27.9 µM
